Results on 14 compounds are retold here after article PMC8976226 (Mutagenesis, 2022).

Data set [1] concerns mammalian cell. The data set is described as follows: In vitro mammalian cell micronucleus test. It counts as cell-based. The conditions noted are these: overall outcome in current dataset.
Data set [2] relates to human peripheral lymphocytes. To be noted: cited from earlier work.
Data set [3] concerns mouse. The conditions noted are these: cited from earlier work.
The test system of data set [4] is GADD45a gene. The data set is described as follows: BlueScreen HC assay. To be noted: fragrance materials, TK6 cells.
The conditions of data set [5]: cited from earlier work.
Data set [6] deals with Salmonella typhimurium, Escherichia coli tester strains. The conditions noted are these: cited from earlier work.
For data set [7] the following is noted: weight of evidence of all available in vitro and in vivo data.
Data set [8] relates to Chinese hamster lung, ovary, or fibroblast cells. The conditions noted are these: ref RIFM Database, cited from earlier work; for chromosomal aberration assay result: Chinese hamster lung, ovary, or fibroblast cells.
Data set [9] has as its system reconstructed skin (EpiDerm™). The conditions noted are these: cited from earlier work.
Data set [10] deals with Chinese hamster V79 cells. The conditions noted are these: cited from earlier work.
Data set [11] concerns mice. The conditions noted are these: cited from earlier work.
Data set [12] relates to L5178 TK +/− cell. The conditions noted are these: cited from earlier work.
Data set [13] deals with Salmonella typhimurium, Escherichia coli tester strains. Nature of the data set: Bacterial reverse mutation test. The format is cell-based. To be noted: overall outcome.
Data set [14] concerns GADD45a gene. The conditions noted are these: published fragrance safety assessment; cited from earlier work.

Structures can show the parent of a compound that is named as a salt. Where two headings read alike, the source gives them in different places.

`CC(C)C12CCC(C)(O)C1C2` (stereo not shown) [4-thujanol]: the “in vitro MNT result” value in data set [1] is on record as “positive”. Further, the “in vitro micronucleus study result” value in data set [2] (4-h time point, absence of metabolic activation) is given as “positive”. The “in vivo micronucleus study result” value in data set [3] was “negative”. For the same compound, in data set [4], the “BlueScreen HC result” value is “negative”.
For the compound `CC(C)CO` [isobutyl alcohol], the “in vivo micronucleus test result” value in [5] is recorded as “negative”.
In the case of `CC(C)C(=O)O` [Isobutyric acid], the Ames test result in data set [6] is “negative”.
For `Cc1cccc2nccnc12` [5-methylquinoxaline], the “in vitro MNT result” value in data set [1] is recorded as “positive”. The “genotoxic potential conclusion (WoE)” value in data set [7] is “devoid of genotoxic activity in vivo”. Moreover, the “in vitro micronucleus study result” value in data set [2] (4-h treatment) was “negative”; in data set [2] (without metabolic activation, 24-h treatment), “positive”. In [5] (two assays), the “in vivo micronucleus assays result” value is “negative”. In addition, the “BlueScreen HC result” value in data set [4] is reported as “negative”.
On to `CC(=O)/C=C/C1C(C)=CCCC1(C)C` (stereo not drawn) [α-ionone, α-Ionone], for which the “genotoxic potential conclusion (WoE)” value in data set [7] was “lack genotoxic potential in vivo”. Also, the “in vitro micronucleus study result” value in data set [2] (human peripheral lymphocytes) is reported as “negative”. In addition, in [8], the “chromosomal aberration assay result” value was “positive”. Also, in data set [3], the “in vivo mouse micronucleus study result” value is “negative”. Moreover, the “BlueScreen HC result” value in data set [4] is listed as “negative”.
In the case of `COC1CC2CCC1(C)C2(C)C` (stereo not shown) [isobornyl methyl ether], the “in vitro MNT result” value in data set [1] was “positive”. The “in vitro micronucleus confirmatory assay result” value in data set [2] (confirmatory assay, dose response not observed) is on record as “increases only at the highest dose level”. Also, the “in vitro micronucleus study result” value in data set [2] (presence of metabolic activation, 4-h time point) was “positive”. Further, in data set [9], the “3D skin micronucleus study result” value is “negative”. Moreover, the “BlueScreen HC result” value in data set [4] is listed as “negative”.
Regarding `COC(=O)CC(C)=O` [methyl acetoacetate, Methyl acetoacetate], the “genotoxic potential conclusion (WoE)” value in data set [7] is “lack genotoxic potential in vivo”. In data set [2] (human lymphocytes), the “in vitro micronucleus result” value is “negative”. Besides, the “chromosomal aberration assay result” value in [8] is recorded as “positive”. Besides, the “BlueScreen HC result” value in [4] is given as “negative”.
`CC(=CC#N)CCc1ccccc1` [3-methyl-5-phenylpent-2-enenitrile]: the “in vitro MNT result” value in data set [1] is listed as “positive”. For the same compound, the “genotoxic potential conclusion (WoE)” value in data set [7] is given as “not genotoxic”. The “in vitro micronucleus assay result” value in data set [10] (4-h time point with metabolic activation) is “Positive”. The “in vivo micronucleus test result” value in data set [3] is “negative”. The “BlueScreen HC result” value in [4] was “negative”.
In the case of `COC(=O)c1ccccc1N` [methyl anthranilate, Methyl anthranilate], the “in vitro chromosomal aberration study result” value in data set [8] (Chinese hamster fibroblast cell line (B 241)) is given as “positive”. For the same compound, in data set [8], the “chromosomal aberration assay result” value was “positive”. The “2-year in vivo carcinogenicity study result” value in data set [11] is reported as “did not show any carcinogenic effects”. The “BlueScreen HC result” value in data set [4] is “negative”.
On to `CC12CCCC(C)(CC1)C2=NO` [1,5-dimethylbicyclo[3.2.1]octan-8-one-oxime], for which the “in vitro MNT result” value in data set [1] is on record as “positive”. Moreover, the “genotoxic potential conclusion (WoE)” value in data set [7] is reported as “not genotoxic”. The “in vitro micronucleus assay result” value in data set [2] (3- and 24- h time points with and without metabolic activation) is reported as “Positive”. Moreover, in data set [3], the “in vivo micronucleus test result” value is listed as “negative”. In addition, in data set [4], the “BlueScreen HC result” value is on record as “negative”.
For the compound `COc1ccc(COC=O)cc1` [anisyl formate], in [2], the “in vitro micronucleus assay result” value is reported as “negative”. In data set [12], the “mammalian cell line mutagenicity study (MLA/HPRT) result” value is “negative”. The “BlueScreen HC result” value in [4] is listed as “negative”.
With `N#C/C=C/c1ccccc1` [cinnamyl nitrile, Cinnamyl nitrile], the “genotoxic potential conclusion (WoE)” value in [7] is “lack genotoxic potential in vivo”. Moreover, the “in vitro micronucleus result” value in data set [10] (Chinese hamster V79 cells) was “negative”. For the same compound, the “chromosomal aberration assay result” value in [8] is given as “positive”. Also, the “BlueScreen HC result” value in data set [4] is recorded as “negative”.
Consider `CC(=O)C1CC(C)=CC(C)C1C` (stereo not shown) [1-(3,5,6-trimethyl-3-cyclohexen-1-yl)ethan-1-one], for which the Ames assay result in data set [13] and in data set [6] (Escherichia coli strain WP2uvrA without metabolic activation) was “positive” in each case. Also, the “Ames assay result, third confirmatory study” value in [6] (similar concentrations, E. coli WP2uvrA or TA102) is given as “no positive effects”. The “genotoxic potential conclusion (WoE)” value in [7] is “unlikely to have genotoxic potential in vivo”. Also, in [2], the “in vitro micronucleus assay result” value is “negative”. Moreover, the “mammalian cell line mutagenicity study (HPRT) result” value in [12] was “negative”. Further, in data set [4], the “BlueScreen HC result” value is recorded as “negative”.
As to `CCCCCCC(OCC)OCC` [1,1-diethoxyheptane], the “BlueScreen HC result” value in data set [14] is listed as “negative”.
